# Results taken from US9096632B2, “Modulator of activity of adenylate cyclase” (Public University Corporation Yokohama City University, priority 2010, dated 2015).
# Experiments:
# [1] = target: T1, adenylyl cyclase activity in the striatum (type 5 adenylyl cyclase) (Mus musculus, UniProt P84309); experiment: Membrane adenylyl cyclase assay, WT striatal membrane, forskolin-stimulated; assay type: biochemical; conditions: 100 μM compound; 50 μM forskolin; WT striatal membrane; read-out: forskolin-stimulated adenylyl cyclase activity (relative to activity without inhibitor = 100)
# T1 construct: IC50 on adenylyl cyclase activity in the striatum; other: WT; estimated from 10, 50 and 100 μM; other: 100 μM compound
# T1 sequence (P84309 whole entry): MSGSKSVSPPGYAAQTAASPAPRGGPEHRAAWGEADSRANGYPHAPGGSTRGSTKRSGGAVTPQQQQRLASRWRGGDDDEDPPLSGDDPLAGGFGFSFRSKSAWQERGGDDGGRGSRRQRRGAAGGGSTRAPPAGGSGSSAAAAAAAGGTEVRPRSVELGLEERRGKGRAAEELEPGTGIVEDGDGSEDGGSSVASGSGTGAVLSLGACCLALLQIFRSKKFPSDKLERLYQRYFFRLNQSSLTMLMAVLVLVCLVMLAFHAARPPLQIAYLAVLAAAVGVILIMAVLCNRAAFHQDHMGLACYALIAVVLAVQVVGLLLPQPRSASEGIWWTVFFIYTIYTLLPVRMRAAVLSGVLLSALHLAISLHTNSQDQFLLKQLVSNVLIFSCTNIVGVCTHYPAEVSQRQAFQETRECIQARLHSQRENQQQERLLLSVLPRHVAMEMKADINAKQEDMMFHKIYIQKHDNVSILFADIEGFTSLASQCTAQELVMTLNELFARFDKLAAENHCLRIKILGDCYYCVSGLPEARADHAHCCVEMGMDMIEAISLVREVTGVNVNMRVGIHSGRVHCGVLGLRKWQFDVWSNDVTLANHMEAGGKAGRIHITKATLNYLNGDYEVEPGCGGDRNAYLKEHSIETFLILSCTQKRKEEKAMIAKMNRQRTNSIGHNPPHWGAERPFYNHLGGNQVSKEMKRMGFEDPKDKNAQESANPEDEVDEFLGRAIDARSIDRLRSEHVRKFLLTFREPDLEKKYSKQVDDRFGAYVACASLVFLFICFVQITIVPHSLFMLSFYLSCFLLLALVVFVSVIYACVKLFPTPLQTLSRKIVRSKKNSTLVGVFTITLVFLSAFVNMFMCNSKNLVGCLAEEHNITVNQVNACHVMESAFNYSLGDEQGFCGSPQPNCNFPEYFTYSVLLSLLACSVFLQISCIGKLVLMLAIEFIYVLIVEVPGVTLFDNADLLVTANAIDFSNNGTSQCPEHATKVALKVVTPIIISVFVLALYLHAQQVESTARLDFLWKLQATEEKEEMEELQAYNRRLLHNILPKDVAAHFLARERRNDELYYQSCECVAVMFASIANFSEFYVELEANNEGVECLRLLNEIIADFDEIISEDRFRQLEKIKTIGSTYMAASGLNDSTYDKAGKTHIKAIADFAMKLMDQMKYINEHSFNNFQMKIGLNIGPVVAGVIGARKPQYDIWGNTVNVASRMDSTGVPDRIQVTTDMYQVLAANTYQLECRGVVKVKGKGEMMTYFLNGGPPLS
# Description: FIG. 2 Inhibitory effects of various compounds on adenylyl cyclase activity in mouse striatum. The striatum is part of the brain. Here, it is known that type 5 adenylyl cyclase occupies almost all of the enzyme activity. […] Relative values are shown with adenylyl cyclase activity in the presence of 50 μM forskolin but in the absence of inhibitors being taken as 100 (n=4, means±S.E.).
# (§1) <Membrane Adenylyl Cyclase Assay>
# (§2) Striatal, cardiac and pulmonary tissues were removed from WT (C57BL) (Charles River Laboratories Japan, Inc.) and AC5KO (Circ. Res. 93: 364-371, 2003), both of which were 12-15 weeks of age after birth, and individual membrane protein fractions were prepared therefrom. The resultant membrane preparations were incubated with a reaction mixture (20 mM HEPES, pH 8, 5 mM MgCl2, 0.5 mM EDTA, pH 8, 0.1 mM ATP, 1 mM phospho creatine, 8 U/mL creatine phosphor kinase, 200 μM IBMX) at 30° C. in the presence of forskolin (an activator of adenylyl cyclase) (50 μM, Sigma Cat. No. F6886) and various compounds, to thereby allow production of cAMP. In this assay, striatum- or lung-derived membrane preparations were used in an amount of 1 μg, and heart-derived membrane preparation was used in an amount of 2 μg. 15 minutes (striatum and lung) or 30 minutes (heart) after its start, the reaction was terminated by adding trichloroacetate (TCA) solution to give a final concentration of 5%. Then, the protein was precipitated by centrifugation (13,500×g, 10 min).
# (§3) In both membrane adenylyl cyclase assay and cAMP accumulation assay, the amount of cAMP contained in TCA solution was determined by radioimmunoassay using […].
# [2] = tested on: rat embryo cultured cardiac myocytes; experiment: TUNEL staining of cardiac myocytes (isoproterenol-induced apoptosis); assay type: cell-based; conditions: 10^−5 M compound with isoproterenol 10^−5 M, 48 hours
# Description: FIG. 10 TUNEL staining of cardiac myocytes. To a culture both of neonatal rat cardiac myocytes, isoproterenol (10^−5 M) either alone or in combination with vidarabine, V2E, V3E or VSE was added for stimulation (48 hours). Then, apoptosis positive cells were evaluated by TUNEL staining.
# <TUNEL Staining of Cardiac Myocytes>
# A culture broth of rat embryo cultured cardiac myocytes (pregnant Wistar rats were purchased from Nippon SLC) was stimulated (48 hours) with isoproterenol (10^−5 M) either alone or in combination with vidarabine, V2E, V3E or V5E (10^−5 M). Then, apoptosis positive cells were evaluated by TUNEL staining.
# [3] = tested on: strychnine-induced tonic extensive convulsion and death; conditions: for time to death induced by strychnine convulsion: 150 mg/kg (0.525 mmol/kg) and 300 mg/kg (1.05 mmol/kg) i.p. 15 min before strychnine 1.5 mg/kg; for migration to the central nervous system: evaluated indirectly from strychnine antagonism
# Description: FIG. 13 Effects on the central nervous system. […] Strychnine nitrate dissolved in physiological saline was administered in the cervicodorsal hypoderm of mice (C57BL/6N; Nippon SLC; male; 10-12 week old) at a dose of 1.5 mg/kg. Subsequently, the time to death through tonic extensive convulsion was measured so that the effect on migration to the central nervous system was evaluated indirectly. Vidarabine, V2E, V3E and V5E were dissolved or suspended in physiological saline and administered intraperitoneally 15 minutes before strychnine administration (n=4-10, means±SE) (FIG. 13). Death was judged to have occurred when the thoracic respiratory movement ceased.
# The migration of vidarabine, V2E, V3E and V5E to the central nervous system was evaluated by antagonism against the tonic extensive convulsion and death initiated in mice by strychnine administration. Strychnine nitrate dissolved in physiological saline was administered in the cervicodorsal hypoderm of mice (C57BL/6N; Nippon SLC; male; 10-12 week old) at a dose of 1.5 mg/kg. Subsequently, the time to death through tonic extensive convulsion was measured. Vidarabine, V2E, V3E and V5E were dissolved or suspended in physiological saline and administered intraperitoneally 15 minutes before strychnine administration.
# [4] = Toxicity test (blood BUN, creatinine, GPT, GOT); assay type: in vivo, mouse; conditions: 15 mg/kg/day for 7 days, osmotic mini-pump
# Description: FIG. 11 Toxicity test. Vidarabine, V2E, V3E and V5E were administered individually with an osmotic mini-pump (15 mg/kg/day for 7 days). Then, blood samples were taken and subjected to BUN, creatinine, GPT and GOT measurements. The results were compared with the results from a control group.
# Vidarabine, V2E, V3E and V5E were administered individually to WT (C57BL/6N; Nippon SLC) with an osmotic mini-pump (15 mg/kg/day for 7 days). Then, blood samples were taken and subjected to BUN, creatinine, OPT and GOT measurements. The results were compared with the results from control group.
# H9c2 cells = experiment: cAMP accumulation assay in H9c2 cells, forskolin stimulation; assay type: cell-based, rat; conditions: 50 μM compound, 100 μM forskolin, n=1, preliminary
# Description: […] <H9c2 Cultured Cells> […] No. D6429) in the presence of 95% air+5% CO2 at 37° C. 80-90% confluent H9c2 cells were suspended in 10% FBS-containing DMEM. The cell suspension (500 μl) was added to each well of 24-well plates to give a density of 40,000 cells/well, and incubated overnight at 37° C. Subsequently, cells were incubated in serum-free DMEM (500 μl/well) for 48 hours and subjected to cAMP accumulation assay. <cAMP Accumulation Assay> H9c2 cells were incubated in the presence of 500 μM IBMX for 20 minutes at 37° C. Then, various vidarabine derivatives were added to the culture broth to give a concentration of 50 μM. Cells were further incubated for 10 minutes at 37° C. […] Cells were further incubated at 4° C. overnight. Similar experiments were also carried out on rat adult cultured cardiac myocytes under stimulation with various vidarabine derivatives (10 μM) and forskolin (5 μM). In both membrane adenylyl cyclase assay and cAMP accumulation assay, the amount of cAMP contained in TCA solution was determined by radioimmunoassay using […].
# [5] = target: T2, adenylyl cyclase activity in the heart; experiment: Membrane adenylyl cyclase assay, WT heart membrane, forskolin-stimulated; assay type: biochemical, mouse; conditions: WT; estimated from 10, 50 and 100 μM; 50 μM forskolin
# T2 construct: IC50 on adenylyl cyclase activity in the heart; other: WT; estimated from 10, 50 and 100 μM
# Source text: FIG. 3 Inhibitory effects of individual vidarabine derivatives on adenylyl cyclase activity in the striatum, heart and lung. With adenylyl cyclase activity in the presence of […] but in the absence of inhibitors being taken as 100, the reductions in adenylyl cyclase activity upon treatment with various inhibitors at the concentrations indicated on the horizontal axis are shown (n=4, means±S.E.).
# as §1, §2, §3
Structure (SMILES),activity at 100 µM [1] [%],inhibitory effect on isoproterenol stimulation-induced apoptosis (TUNEL positive cells) [2],time to death induced by strychnine convulsion [3],migration to the central nervous system [3],BUN compared with control group [4],GOT compared with control group [4],OPT compared with control group [4],creatinine compared with control group [4],level of cAMP accumulated in response to forskolin (relative to control) (H9c2 cells),IC50 [5] [µM]
"CN(C)CC(=O)OC1C(CO)OC(n2cnc3c(N)ncnc32)C1O (centres unmarked) [V3E, 3-O—(N,N-Dimethylglycyl)Vidarabine]",~25.1,comparable to the effect of vidarabine,did not prolong,extremely low,No significant increase,No significant increase,No significant increase,No significant increase,about 45.7%,19.9
"CN(C)CC(=O)OC1C(O)C(CO)OC1n1cnc2c(N)ncnc21 (centres unmarked) [V2E, 2-O—(N,N-Dimethylglycyl)Vidarabine]",~24.5,comparable to the effect of vidarabine,did not prolong,extremely low,No significant increase,No significant increase,No significant increase,No significant increase,about 57.1%,17.8
"CN(C)CC(=O)OCC1OC(n2cnc3c(N)ncnc32)C(O)C1O (centres unmarked) [V5E, 5-O—(N,N-Dimethylglycyl)Vidarabine]",~24.9,comparable to the effect of vidarabine,did not prolong,extremely low,No significant increase,No significant increase,No significant increase,No significant increase,about 82.5%,42.9
"Nc1ncnc2c1ncn2[C@@H]1O[C@H](CO)[C@@H](O)[C@@H]1O [vidarabine, reference compound]",~17.3,–,significantly prolonged,–,No significant increase,No significant increase,No significant increase,No significant increase,about 35.1%,7.7
